Reference: ChEMBL document CHEMBL1154051, “Analysis of binding parameters of HIV-1 integrase inhibitors: correlates of drug inhibition and resistance” (Bioorg Med Chem, 2009)

Biological target: Human immunodeficiency virus type 1 integrase (Human immunodeficiency virus 1, UniProt Q7ZJM1)
Assay: Inhibition of HIV1 integrase strand transfer activity

Sequence of Human immunodeficiency virus type 1 integrase (Q7ZJM1 whole entry): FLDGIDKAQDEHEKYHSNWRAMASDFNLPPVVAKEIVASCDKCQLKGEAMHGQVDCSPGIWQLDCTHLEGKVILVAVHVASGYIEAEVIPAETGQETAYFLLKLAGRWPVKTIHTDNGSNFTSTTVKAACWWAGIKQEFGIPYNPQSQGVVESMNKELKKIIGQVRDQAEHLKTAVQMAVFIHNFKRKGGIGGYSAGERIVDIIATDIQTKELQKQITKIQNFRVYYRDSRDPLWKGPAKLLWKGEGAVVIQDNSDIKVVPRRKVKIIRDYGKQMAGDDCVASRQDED

Row | IC50 [nM] | SMILES
1 | 30 | O=C(NCc1ccc(F)cc1)c1ccc2cccnc2c1O
2 | 250 | CN(C)S(=O)(=O)Oc1c2c(c(O)c3ncccc13)C(=O)N(Cc1ccc(F)cc1)C2
3 | 90 | COc1cnc2c(O)c3c(c(OC)c2c1)CN(Cc1ccc(F)cc1)C3=O
4 | 100 | O=C(O)/C(O)=C/C(=O)c1cc(OCc2ccccc2)cc(OCc2ccccc2)c1
5 | 2500 | O=C(O)/C(O)=C/C(=O)c1cccc(Br)c1
6 | 330 | [N-]=[N+]=NCc1cccc(C(=O)/C=C(\O)C(=O)O)c1
7 | 150 | COc1ccc(Cc2cccc(C(=O)/C=C(\O)C(=O)O)c2)cc1
8 | < 100 | O=C(O)/C(O)=C/C(=O)c1cccc(Cc2ccccc2F)c1
9 | 40 | CN(C)C(=O)C(=O)N(C)c1cc(C(=O)NCc2ccc(F)cc2)c(O)c2ncccc12
10 | 180 | O=C(O)/C(O)=C/C(=O)C1C=CSC1Cc1ccccc1 (stereo not drawn)
11 | 750 | O=C(O)/C(O)=C/C(=O)c1cccc(Cc2ccc(Cl)cc2)c1
12 | 250 | O=C(O)/C(O)=C/C(=O)c1cccc(Cc2cccc(F)c2)c1
13 | 40 | CN1CCN(c2cc(C(=O)NCc3ccc(F)cc3)c(O)c3ncccc23)CC1
14 | 20 | CC(=O)N1CCN(c2cc(C(=O)NCc3ccc(F)cc3)c(O)c3ncccc23)CC1
15 | 20 | CC(=O)N(C)c1cc(C(=O)NCc2ccc(F)cc2)c(O)c2ncccc12
16 | < 100 | O=C(O)/C(O)=C/C(=O)c1cccc(Cc2ccccc2Cl)c1
17 | 7500 | O=C(O)/C(O)=C/C(=O)c1cccn1Cc1ccc(-c2ccccc2)cc1
18 | 140 | COc1cccc(Cc2cccc(C(=O)/C=C(\O)C(=O)O)c2)c1
19 | 11400 | O=C(O)/C(O)=C/C(=O)c1ccc(Oc2ccccc2)cc1
20 | 220 | O=C(O)/C(O)=C/C(=O)c1cccn1Cc1ccccc1
21 | 550 | O=C(O)/C(O)=C/C(=O)c1ccn(Cc2ccccc2)c1
22 | 500 | O=C(O)/C(O)=C/C(=O)c1ccc(Cc2ccccc2)s1
23 | < 100 | O=C(O)/C(O)=C/C(=O)c1cccc(Cc2cccc(Cl)c2)c1
24 | 460 | [N-]=[N+]=NCc1cc(CN=[N+]=[N-])cc(C(=O)/C=C(\O)C(=O)O)c1
25 | 2400 | O=C(/C=C(\O)C(=O)O)C(=O)c1cccc(C(=O)c2ccccc2)c1
26 | 30 | CC(=O)N(C)CCNc1cc(C(=O)NCc2ccc(F)cc2)c(O)c2ncccc12
27 | 500 | O=C(O)/C(O)=C/C(=O)c1cccn1CCCc1ccccc1
28 | 5670 | O=C(O)/C(O)=C/C(=O)c1ccccc1Cc1ccccc1
29 | < 100 | O=C(O)/C(O)=C/C(=O)c1cccc(Cc2ccc(F)cc2)c1
30 | 130 | O=C(O)/C(O)=C/C(=O)c1csc(Cc2ccccc2)c1

Row | SMILES | IC50 [nM]
31 | O=C1c2c(c(C(=O)N3CCOCC3)c3cccnc3c2O)CN1Cc1ccc(F)cc1 | 40
32 | O=C1c2c(c(-c3c(F)cccc3F)c3cccnc3c2O)CN1Cc1ccc(F)cc1 | 330
33 | O=C(O)/C(O)=C/C(=O)c1cccc(OCc2ccccc2)c1 | 350
